Patent US20220401564A1 (DANA-FARBER CANCER INSTITUTE, INC., priority 2019, published 2022)

Assays:
HDAC8 = biological target: T1, HDAC8 (Homo sapiens, UniProt Q9BY41); experiment: HDAC enzymatic assay (Reaction Biology), HDAC8 substrate; type: biochemical; set-up: purchased Reaction Biology
T1 sequence (Q9BY41 1-377): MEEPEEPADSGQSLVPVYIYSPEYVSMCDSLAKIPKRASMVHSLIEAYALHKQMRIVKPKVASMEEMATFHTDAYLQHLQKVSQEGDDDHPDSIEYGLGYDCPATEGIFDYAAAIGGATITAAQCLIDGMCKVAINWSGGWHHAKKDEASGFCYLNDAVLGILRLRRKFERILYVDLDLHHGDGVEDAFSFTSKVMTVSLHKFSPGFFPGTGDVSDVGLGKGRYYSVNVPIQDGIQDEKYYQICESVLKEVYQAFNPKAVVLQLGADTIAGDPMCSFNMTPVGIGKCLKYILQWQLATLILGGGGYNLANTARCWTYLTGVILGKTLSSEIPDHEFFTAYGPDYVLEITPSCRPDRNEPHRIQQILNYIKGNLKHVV
Description: Compounds 2 and 9 were tested in an enzymatic assay from Reaction Biology® against HDAC isoforms.
Base Reaction buffer: 50 mM Tris-HCl, pH8.0, 137 mM NaCl, 2.7 mM KCl, and 1 mM MgCl2. Add fresh: 1 mg/ml BSA, 1% DMSO
(HDAC8 only substrate: 50 μM, Arg-His-Lys(Ac)-Lys(Ac))-AMC
1. Delivered 2X enzyme in wells of reaction plate except in the control wells and added buffer to control wells. 2. Delivered compounds in 100% DMSO into the enzyme mixture by Acoustic technology (Echo550; nanoliter range). Spin down and pre-incubation. 3. Delivered 2X Substrate Mixture (Fluorogenic HDAC Substrate and co-factor if applicable) in all reaction wells to initiate the reaction. Spin and shake. 4. Incubated for 30 min for Class 2A, 1 h for HDAC1, 2, 3, and 6, and 2 h for the rest of HDAC isoforms and SIRTs at 30° C. with seal.
5. Added Developer with Trichostatin A (or Nicotinamide for SIRTs) to stop the reaction and to generate fluorescent color. 6. The fluorescence that was generated was detected with excitation (Ex) at […] and emission (Em) at 460 nM by the EnVision Multilabel Plate Reader (PerkinElmer®, Santa Clara, Calif., USA).
IC50 values were derived from a 10-dose response curve. As shown in Tables 1-2, the addition of a linker and CRBN targeting group altered the isoform selectivity of the SAHA-based degrader compounds.

[1] = system: other identified HDAC proteins; experiment: Change in cellular protein abundance (TMT proteomics) in Kelly cells; type: cell-based, human; details: 1 μM, 5 hours, vs DMSO
Description: Lysis buffer (8 M Urea, 50 mM NaCl, 50 mM 4-(2hydroxyethyl)-1-piperazineethanesulfonic acid (EPPS) pH 8.5, protease and phosphatase inhibitors from Roche®) were added to the cell pellets and homogenized by 20 passes through a 21 gauge (1.25 in. long) needle to achieve a cell lysate with a protein concentration between 1-4 mg mL-1. A micro-BCA assay (Pierce™) was used to determine the final protein concentration in the cell lysate. 200 μg of protein for each sample were reduced and alkylated as described in Donovan et al., Elife 7:e38430 (2018).
Proteins were precipitated using methanol/chloroform. Four volumes of methanol were added to the cell lysate, followed by one volume of chloroform, and finally three volumes of water. The mixture was vortexed and centrifuged to separate the chloroform phase from the aqueous phase. […]
Anhydrous ACN was added to each peptide sample to a final concentration of 30% v/v, and labeling was induced with the addition of TMT reagent to each sample at a ratio of 1:4 peptide:TMT label. […] The sample channels were combined at a 1:1:1:1:1:1:1:1:1:1:1 ratio, desalted using Cis solid phase extraction cartridges (Waters®) and analyzed by LC-MS for channel ratio comparison. Samples were then combined using the adjusted volumes determined in the channel ratio analysis and dried down in a speed vacuum. […]

inhibition of HDAC8 deacetylase activity in vitro (in words) (HDAC8): Moderate inhibition | IC50 (HDAC8; 10-dose response curve, read-out: Compound IC50 (M), HDAC8): 1.16e-06 M
Structure (SMILES): Cc1ncsc1-c1ccc([C@H](C)NC(=O)[C@@H]2C[C@@H](O)CN2C(=O)[C@@H](NC(=O)CCOCCOCCN(CCc2c[nH]c3ccccc23)Cc2ccc(/C=C/C(=O)NO)cc2)C(C)(C)C)cc1 [Compound 2, (2S,4R)-1-((S)-14-(tert-butyl)-3-(4-((E)-3-(hydroxyamino)-3-oxoprop-1-en-1-yl)benzyl)-1-(1H-indol-3-yl)-12-oxo-6,9-dioxa-3,13-diazapentadecan-15-oyl)-4-hydroxy-N—((S)-1-(4-(4-methylthiazol-5-yl)phenyl)ethyl)pyrrolidine-2-carboxamide]
cellular protein levels of the other identified HDAC proteins (heat map FIG. 2) [1]: did not affect
